Measured values reported in PubChem BioAssay AID248 (DTP/NCI, 2004).
Where “and” joins values, the source holds several entries; their conditions need not be identical. Equal entries are not always repeated. Toxic doses and inconclusive results are not listed. No stated cut-off is given here; in the data, active means T/C of 150% or more; inactive means T/C below 125%.

System: L1210 leukemia ip in BDF1 mice, survival T/C
Assay: NCI In Vivo Anticancer Drug Screen. Data for tumor model L1210 Leukemia (intraperitoneal) in B6D2F1 (BDF1) mice
Details: endpoint: mean survival time, higher = longer survival
Outline: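 Tumor was transplanted into mice, which were then dosed with test compound or vehicle alone. Survival was recorded for each group, and the treated figure was expressed relative to the control figure.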

[1] = dose: 100.0 mg/kg/injection, schedule: Q04DX003 (ip), vehicle: saline
[2] = dose: 200.0 mg/kg/injection, schedule: Q04DX003 (ip), vehicle: saline
[3] = dose: 400.0 mg/kg/injection, schedule: Q04DX003 (ip), vehicle: saline
[4] = dose: 100.0 mg/kg/injection, schedule: Q01DX009 (ip), vehicle: Klucel (hydroxypropylcellulose) (HPC)
[5] = dose: 100.0 mg/kg/injection, schedule: Q04DX003 (ip), vehicle: Klucel (hydroxypropylcellulose) (HPC)
[6] = dose: 200.0 mg/kg/injection, schedule: Q01DX009 (ip), vehicle: Klucel (hydroxypropylcellulose) (HPC)
[7] = dose: 200.0 mg/kg/injection, schedule: Q04DX003 (ip), vehicle: Klucel (hydroxypropylcellulose) (HPC)
[8] = dose: 400.0 mg/kg/injection, schedule: Q01DX009 (ip), vehicle: Klucel (hydroxypropylcellulose) (HPC)
[9] = dose: 400.0 mg/kg/injection, schedule: Q04DX003 (ip), vehicle: Klucel (hydroxypropylcellulose) (HPC)
[10] = dose: 100.0 mg/kg/injection, schedule: Q01DX009 (ip), vehicle: saline
[11] = dose: 200.0 mg/kg/injection, schedule: Q01DX009 (ip), vehicle: saline
[12] = dose: 400.0 mg/kg/injection, schedule: Q01DX009 (ip), vehicle: saline
[13] = dose: 100.0 mg/kg/injection, schedule: Q01DX001 (ip), vehicle: saline
[14] = dose: 200.0 mg/kg/injection, schedule: Q01DX001 (ip), vehicle: saline
[15] = dose: 400.0 mg/kg/injection, schedule: Q01DX001 (ip), vehicle: saline

Measured: T/C

CC(C)CCOC(=O)N(C)c1ccccc1
inactive: dose: 75.0 mg/kg/injection, schedule: Q04DX002 (ip), vehicle: Klucel (hydroxypropylcellulose) (HPC) 101 % of control | dose: 150.0 mg/kg/injection, schedule: Q04DX002 (ip), vehicle: Klucel (hydroxypropylcellulose) (HPC) 105 % of control | dose: 300.0 mg/kg/injection, schedule: Q04DX002 (ip), vehicle: Klucel (hydroxypropylcellulose) (HPC) 105 % of control

O=C(O)CCC(NC(=O)C1CCCCC1C(=O)O)C(=O)O (centres undefined)
inactive: [1] 96 % of control | [2] 86 % of control | [3] 87 % of control

COS(=O)(=O)c1ccc(Cl)c([N+](=O)[O-])c1
inactive: dose: 0.38 mg/kg/injection, schedule: Q01DX009 (ip), vehicle: saline 97 % of control | dose: 0.75 mg/kg/injection, schedule: Q01DX009 (ip), vehicle: saline 102 % of control | dose: 0.75 mg/kg/injection, schedule: Q04DX003 (ip), vehicle: saline with Tween-80 101 % of control | dose: 1.5 mg/kg/injection, schedule: Q01DX009 (ip), vehicle: saline 97 % of control | dose: 1.5 mg/kg/injection, schedule: Q04DX003 (ip), vehicle: saline with Tween-80 90 % of control

Nc1ncnc2c(C(=O)O)c[nH]c12
inactive: dose: 100.0 mg/kg/injection, schedule: Q01DX001 (ip), vehicle: other 98 % of control | dose: 200.0 mg/kg/injection, schedule: Q01DX001 (ip), vehicle: other 110 % of control | dose: 400.0 mg/kg/injection, schedule: Q01DX001 (ip), vehicle: other 111 % of control

O=C(O)COc1ccc(OCC(=O)O)cc1
inactive: [4] 97 % of control | [5] 95 % of control | [6] 89 % of control | [7] 95 % of control | [8] 89 % of control | [9] 92 % of control

O=C(NCCCl)Nc1ccccc1
inactive: dose: 100.0 mg/kg/injection, schedule: Q01DX001 (ip), vehicle: Klucel (hydroxypropylcellulose) (HPC) 93 % of control | [5] 122 % of control | dose: 200.0 mg/kg/injection, schedule: Q01DX001 (ip), vehicle: Klucel (hydroxypropylcellulose) (HPC) 101 % of control | [7] 104 % of control

CC1(O)CCC2CC1C2(C)CO (centres undefined)
inactive: dose: 50.0 mg/kg/injection, schedule: Q04DX003 (ip), vehicle: Klucel (hydroxypropylcellulose) (HPC) 108 % of control | [5] 101 % of control | [7] 106 % of control | [9] 111 % of control

CC(O)C(O)C(=O)OCc1ccccc1 (centres undefined)
inactive: [10] 117 % of control | [1] 101 % of control | [11] 102 % of control | [2] 103 % of control | [12] 110 % of control | [3] 98 % of control

Cc1ccc(Sc2cccc3c2C(=O)c2c(Sc4ccc(C)cc4)cccc2C3=O)cc1
inactive: dose: 100.0 mg/kg/injection, schedule: Q04DX003 (ip), vehicle: saline with Tween-80 86 % of control | dose: 200.0 mg/kg/injection, schedule: Q04DX003 (ip), vehicle: saline with Tween-80 91 % of control | dose: 400.0 mg/kg/injection, schedule: Q04DX003 (ip), vehicle: saline with Tween-80 88 % of control

NC(=O)C(c1ccccc1)C(O)c1ccccc1 (centres undefined)
inactive: dose: 50.0 mg/kg/injection, schedule: Q01DX001 (ip), vehicle: saline 101 % of control | [13] 95 % of control | [14] 97 % of control | [15] 101 % of control

CC1=CCC(O)(C(C)C)CC1 (centres undefined)
inactive: [10] 93 % of control | [11] 93 % of control | [12] 95 % of control

CN(C)/C=N\c1ncnc2c1ncn2C1OC(CO)C2OC(C)(C)OC21 (centres undefined)
inactive: dose: 100.0 mg/kg/injection, schedule: Q01DX005 (ip), vehicle: saline 104 % of control | dose: 200.0 mg/kg/injection, schedule: Q01DX005 (ip), vehicle: saline 103 % of control

CCOC(=O)CNc1ccc(Cl)cc1
inactive: dose: 25.0 mg/kg/injection, schedule: Q04DX002 (ip), vehicle: Klucel (hydroxypropylcellulose) (HPC) 98 % of control and 106 % of control | dose: 50.0 mg/kg/injection, schedule: Q04DX002 (ip), vehicle: Klucel (hydroxypropylcellulose) (HPC) 102 % of control | dose: 100.0 mg/kg/injection, schedule: Q04DX002 (ip), vehicle: Klucel (hydroxypropylcellulose) (HPC) 101 % of control and 91 % of control | dose: 200.0 mg/kg/injection, schedule: Q04DX002 (ip), vehicle: Klucel (hydroxypropylcellulose) (HPC) 102 % of control

Cc1c(CC[n+]2cccc(C(N)=O)c2)[nH]c(=O)[nH]c1=O
inactive: [1] 97 % of control | [2] 101 % of control | [3] 97 % of control

CCOP(=O)(OCC)Oc1c(Cl)c(Cl)c(OC(=O)Nc2cc(Cl)ccc2Cl)c(Cl)c1Cl
inactive: dose: 25.0 mg/kg/injection, schedule: Q04DX002 (ip), vehicle: saline with Tween-80 90 % of control | dose: 50.0 mg/kg/injection, schedule: Q04DX002 (ip), vehicle: saline with Tween-80 97 % of control | dose: 100.0 mg/kg/injection, schedule: Q04DX002 (ip), vehicle: saline with Tween-80 94 % of control

COC(=O)c1[nH]c(=O)[nH]c(=O)c1[N+](=O)[O-]
inactive: dose: 75.0 mg/kg/injection, schedule: Q01DX001 (ip), vehicle: saline 106 % of control | dose: 150.0 mg/kg/injection, schedule: Q01DX001 (ip), vehicle: saline 93 % of control | dose: 300.0 mg/kg/injection, schedule: Q01DX001 (ip), vehicle: saline 93 % of control

CCOC(=O)CN(C)c1ccccc1
inactive: dose: 50.0 mg/kg/injection, schedule: Q01DX001 (ip), vehicle: carboxymethylcellulose (CMC) 104 % of control | dose: 100.0 mg/kg/injection, schedule: Q01DX001 (ip), vehicle: carboxymethylcellulose (CMC) 107 % of control | dose: 200.0 mg/kg/injection, schedule: Q01DX001 (ip), vehicle: carboxymethylcellulose (CMC) 93 % of control | dose: 400.0 mg/kg/injection, schedule: Q01DX001 (ip), vehicle: carboxymethylcellulose (CMC) 107 % of control

COC(=O)c1ccc(OS(=O)(=O)c2cccc([N+](=O)[O-])c2)cc1
inactive: [4] 96 % of control | [5] 90 % of control | [6] 98 % of control | [7] 95 % of control | [8] 118 % of control | [9] 90 % of control

Cc1ccc(S(=O)(=O)N/N=C2/C3CC4C(C3)C24)cc1
inactive: [13] 90 % of control | [14] 88 % of control | [11] 92 % of control | [15] 103 % of control

CC1OCC2OC(C)OC(C(COC(=O)c3ccc([N+](=O)[O-])cc3)OS(C)(=O)=O)C2O1 (centres undefined)
inactive: [4] 113 % of control | [5] 102 % of control | [6] 108 % of control | [7] 104 % of control | [8] 92 % of control | [9] 96 % of control
